Laboratory results reported in patent publication US20080220416A1, “Compositions for Inhibiting Cell Growth and Inducing Apoptosis in Cancer Cells and Methods of Use Thereof” (THE BOARD OF TRUSTEES OF THE UNIVERSITY OF ILLINOI, priority 2004, published 2008).
Square brackets hold non-standard residues; d marks the D form. Peptide text beside a SMILES is read from it. * marks the point of attachment. Nle = CCCC[C@H](N)C(=O)O; Cbz = O=C(OCc1ccccc1)*

Key:
[1] = test system: MDA-MB231 breast cancer cells; assay: Extracellular matrix invasion of MDA-MB231 cells (Matrigel Invasion Chambers); type: cell-based, human; conditions: siRNA transfection, 22 hours
Description: (§1) Cytotoxicity and growth of transfected cells were estimated by a standard assay used for cancer drug screening, through the total amount of TCA-precipitated cell proteins after drug treatment (Likhitwitayawuid, K et al., 1993, J Nat Prod 56:30-38): 200 μl of cell suspension (10^5 cells/ml) were added to each well in a 96-well plate. After incubation at, 37° C., in 5% CO2 (30 minutes to 72 hours depending on the time course chosen), 50 μl 50% trichloroacetic acid was added to each well. After incubation at 4° C. for 1 hour, precipitates were washed with water 4-5 times and air dried overnight. One hundred μl of SRB solution (0.4% sulforhodamine B in 1% acetic acid, filtered before use) was added to each well for 30 minutes. Wells were washed with 1% acetic acid 4-5 times and air dried. Two hundred μl 10 mM Tris base was added to each well. Plates were shaken for 5-10 minutes and OD at 490 nm (OD490) was recorded via ELISA reader. To assay matrix invasion, 300 μl of cell suspension (10^6 cells/mL in serum-free medium) were added to invasion inserts (BioCoat Matrigel Invasion Chambers, Becton Dickinson, Bedford, Mass.) and incubated for 22 hours at 37° C., 5% CO2. Cells were stained with 0.9% crystal violet in 10% ethanol for 20 minutes. Inserts were dipped in water several times and air dried. After removal of the non-invading cells from the interior of the inserts, stained invading cells were lysed in 10% acetic acid and OD595 was determined.
Notch silencing was confirmed by Western blot as described above in Example 15 using commercial goat polyclonal antibodies from Santa Cruz Biotechnology to Notch-1 (C-20, Cat# sc-6014 S). For the Western blot analyses, MDA-MB231 cells were treated with 25 μM IL-X for 48 h or with 0.5, 1 or 2 μM z-Leu-Leu-Nle-CHO for 24 h. Cytotoxicity and matrix invasion assays were performed as described above in Example 15. For the cytotoxicity assays, MDA-MB231 cells were treated with […] IL-X for up to 3 days or with 0-20 μM z-Leu-Leu-Nle-CHO for up to 4 days. […]

[2] = test system: cytochrome C and Smac/DLABLO; assay: Mitochondrial integrity by Western blot in RJ002L melanoma cells; type: cell-based, human; conditions: 10 μM
Description: Western blot analyses following z-Leu-Leu-Nle-CHO and control treatment of RJ002L melanoma cells were performed to determine the effect of z-Leu-Leu-Nle-CHO on pro-survival and pro-apoptotic proteins. Whole cell extracts were prepared and analyzed as described by Denning, M. F. et al., 1998, J Biol Chem 273: 29995-30002, 1998. The enriched mitochondria pellet and mitochondria-free cytosol of melanoma cells were prepared with the APO ALERT cell fraction kit (Clontech Laboratories, Inc. Palo Alto, Calif.) according to the manufacturer's instructions. For Western blot analysis, equal amounts of protein extracted from each sample (20-30 μg) were loaded into pre-cast 7% NuPAGE Tris-acetate gels or 4-12% NuPAGE Bis-tris gels (Invitrogen). Proteins were separated by SDS-PAGE and transferred to polyvinylidene difluoride membranes (Bio-Rad, Hercules, Calif.) using Invitrogen's buffering system. The indicated primary antibodies were incubated for indicated period of time, washed, and visualized by incubation with horseradish peroxidase-conjugated secondary antibodies and chemiluminescent reagents (Roche Diagnostics Corporation, Indianapolis, Ind.). […]
Mitochondrial integrity before and after exposure to z-Leu-Leu-Nle-CHO was evaluated using Western blot analysis as described above.

[3] = test system: T47D:C42 breast cancer cells; assay: Cytotoxicity assay in T47D:C42 breast cancer cells; type: cell-based; conditions: T47D:C:4:2; T47D:C42 (p53 wild-type, ERα-negative); 48 h; read-out: IC50, cell growth inhibition
Description: as §1, with “Inserts were dipped in water several times and air dried.” left out, “determined. […]” for “determined.”

[4] = test system: SK-MeI-28 melanoma cells; assay: Dosing study versus chemotherapeutic agents, killing of SK-MeI-28 melanoma cells; type: cell-based, human; conditions: SK-MeI-28, mutated p53
Description: An initial dosing study comparing z-Leu-Leu-Nle-CHO against three different chemotherapeutic agents (i.e., adriamycin, etoposide, and cisplatin) was performed to evaluate the relative effectiveness of z-Leu-Leu-Nle-CHO in killing melanoma cells. In agreement with a previous report by Soengas, M. S. et al., 2001, Nature 409.207-211, SK-MeI-28 cells, carrying a mutated p53, were relatively resistant to killing by adriamycin, as well as to killing by other chemotherapeutic agents. For SK-MeI-28 melanoma cells, the maximal apoptotic response for adriamycin, etoposide, cisplatin, and z-Leu-Leu-Nle-CHO was 12.0%, 2.6%, 4.0%, and 29.4%, respectively. For RJ002L melanoma cells, the maximal apoptotic response for adriamycin, etoposide, cisplatin, and z-Leu-Leu-Nle-CHO was 23.9%, 12.7%, 3.4%, and 45.7%, respectively.

| Compound | extracellular matrix invasion [1] | release of cytochrome C and Smac/DLABLO from mitochondria [2] | IC50 [3] [nM] | maximal apoptotic response [4] [%] |
| --- | --- | --- | --- | --- |
| 5′-AAGTGTCTGAGGCCAGCAAGA-3′ [Notch-1 siRNA] | significantly inhibited extracellular matrix invasion |  |  |  |
| CCCC[C@@H](C=O)NC(=O)[C@H](CC(C)C)NC(=O)[C@H](CC(C)C)NC(=O)OCc1ccccc1 [z-Leu-Leu-Nle-CHO, N-benzyloxycarbonyl-leucyl-leucyl-norleucinal] (Cbz-Leu-Leu-[Nle]-aldehyde) |  | released into the cytoplasm of RJ002L melanoma cells as early as 1 hr | 380 | 29.4 |
